Molecular target: T1, recombinant human mPGES-1 (Homo sapiens, UniProt O14684)
T1 construct: made in house; host or cells: Rosetta E. coli (microsomal/membrane fraction)
T1 sequence (O14684 1-152): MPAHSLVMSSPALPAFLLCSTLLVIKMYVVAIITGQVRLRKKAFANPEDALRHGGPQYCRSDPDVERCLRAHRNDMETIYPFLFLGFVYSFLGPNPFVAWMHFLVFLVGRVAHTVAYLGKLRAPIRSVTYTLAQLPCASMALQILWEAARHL
Assay: mPGES-1 inhibition test (microsomes, HTRF detection of PGE2)
Assay type: biochemical
Description: Microsomes from Rosetta E. coli bacteria expressing recombinant human mPGES-1 is dissolved in 0.1 M KPi pH 7.4 buffer containing 2.5 mM GSH. 50 μl of the enzyme is subsequently dispensed in a 384-well plate. 0.5 μl of the inhibitor dissolved in DMSO at is thereafter added to each well and incubated for 25 minutes at room temperature.
Subsequently, 2 μl of PGH2 dissolved in an appropriate solvent is added to each well and after one minute the acidified stop solution containing FeCl2 is added. 4 μl of the total volume is transferred to a separate plate and diluted 750-fold in two separate steps before HTRF detection of PGE2.
The HTRf detection is performed by the use of a commercially available kit from CisBio essentially according to the manufacturer's protocol. Briefly, 10 μl of the diluted sample is transferred to a white 384-well plate. 5 μl of d2 and 5 μl Eu3+-Cryptate labeled anti-PGE2 is added to each well containing samples by the use of a Multidrop. The plate is covered with a plastic self-adhesive film, centrifuged at 1200 rpm for 1 minute and subsequently stored at +4° C. over night.
After over night incubation the fluorescence is measured by the use of an appropriate microplate reader. The fluorescence of europium cryptate, and d2 are measured using the following excitation and emission wavelength, europium cryptate: λmax^ex=307 nm, λmax^em=620 nm and d2: λmax^ex=620 nm, λmax^em=665 nm), respectively. The extent of the specific FRET is measured as a ratio of the emission intensity at 665 nm vs. that at 620 nm. A standard curve using synthetic PGE2 is used to quantify the amount of PGE2 in unknown samples.

| Structure (SMILES) | inhibition at 10 µM | % inhib. (percentage inhibition of mPGES-1 at 10 μM (unless otherwise specified)) |
| --- | --- | --- |
| O=C(Nc1cc(C(F)(F)F)ccn1)c1cc2[nH]c(Nc3c(F)cc(F)cc3Cl)nc2cn1 [Example 731, 2-(2-Chloro-4,6-difluoro-phenylamino)-N-(4-trifluoromethyl-pyridin-2-yl)-1H-imidazo[4,5-c]pyridine-6-carboxamide] | 100% |  |
| O=C(Nc1ccc(Br)cc1)c1cc2[nH]c(Nc3c(Cl)cccc3Cl)nc2cn1 [Example 722, 2-(2,6-Dichlorophenylamino)-N-(4-bromo-phenyl)-1H-imidazo[4,5-c]pyridine-6-carboxamide] | 100% |  |
| Cn1c(Nc2c(F)cccc2Cl)nc2cc(C(=O)NC3CCCCC3)ncc21 [Example 444, 2-(2-Chloro-6-fluorophenylamino)-N-cyclohexyl-3-methyl-3H-imidazo[4,5-c]-pyridine-6-carboxamide] | 100% |  |
| Cc1cc(NC(=O)c2cc3[nH]c(Nc4c(Cl)cccc4Cl)nc3cn2)ncc1Cl [Example 718, 2-(2,6-Dichlorophenylamino)-N-(5-chloro-4-methyl-pyridin-2-yl)-1H-imidazo[4,5-c]pyridine-6-carboxamide] | 100% |  |
| O=C(Nc1cc(C2CC2)ccn1)c1cc2[nH]c(Nc3c(Cl)cccc3Cl)nc2cn1 [Example 445, N-(4-Cyclopropylpyridin-2-yl)-2-(2,6-dichlorophenylamino)-1H-imidazo[4,5-c]-pyridine-6-carboxamide] | 98% |  |
| Cc1cc(NC(=O)c2cc3[nH]c(Nc4c(Cl)cccc4Cl)nc3cn2)ncc1F [Example 719, 2-(2,6-Dichlorophenylamino)-N-(5-fluoro-4-methyl-pyridin-2-yl)-1H-imidazo[4,5-c]pyridine-6-carboxamide] | 100% |  |
| Cc1cc(C(F)(F)F)cc(NC(=O)c2cc3[nH]c(Nc4c(Cl)cccc4Cl)nc3cn2)n1 [Example 723, 2-(2,6-Dichlorophenylamino)-N-(6-methyl-4-trifluoromethyl-pyridin-2-yl)-1H-imidazo[4,5-c]pyridine-6-carboxamide] | 100% |  |
| Cn1c(Nc2c(Cl)cccc2Cl)nc2cc(C(=O)NCc3ncccc3C(F)(F)F)ncc21 [Example 528, 2-(2,6-Dichlorophenylamino)-3-methyl-N-((3-trifluoromethyl-pyridin-2-yl)-methyl)-3H-imidazo[4,5-c]pyridine-6-carboxamide] | 96% |  |
| Cn1c(Nc2c(Cl)cccc2Cl)nc2cc(C(=O)NC3CCC4(CC3)CC4)ncc21 [Example 425, 2-(2,6-Dichlorophenylamino)-3-methyl-N-(spiro[2.5]octan-6-yl)-3H-imidazo[4,5-c]-pyridine-6-carboxamide] | 100% |  |
| CC(C)(C)c1ccnc(NC(=O)c2cc3[nH]c(Nc4c(Cl)cccc4Cl)nc3cn2)c1 [Example 396, N-(4-tert.-Butyl-pyridin-2-yl)-2-(2,6-dichlorophenylamino)-1H-imidazo[4,5-c]pyridine-6-carboxamide] | 100% |  |
| O=C(N[C@H]1CC[C@H](C(F)(F)F)CC1)c1cc2[nH]c(Nc3c(Cl)cccc3Cl)nc2cn1 [Example 481, 2-(2,6-Dichlorophenylamino)-N-((1r,4r)-4-trifluoromethyl-cyclohexyl)-1H-imidazo[4,5-c]pyridine-6-carboxamide] | 98% |  |
| Cn1c(Nc2cnccc2C(F)(F)F)nc2cc(C(=O)Nc3cc(C(F)(F)F)ccn3)ncc21 [Example 734, 2-(4-Trifluoromethyl-pyridin-3-ylamino)-3-methyl-N-(4-trifluoromethyl-pyridin-2-yl)-3H-imidazo[4,5-c]pyridine-6-carboxamide] | 99% |  |
| Cn1c(Nc2c(Cl)cncc2Cl)nc2cc(C(=O)Nc3cc(C(F)(F)F)ccn3)ncc21 [Example 482, 2-(3,5-Dichloropyridin-4-ylamino)-3-methy-N-(4-trifluoromethyl-pyridin-2-yl)-3H-imidazo[4,5-c]pyridine-6-carboxamide] | 98% |  |
| Cn1c(Nc2c(Cl)cccc2Cl)nc2cc(C(=O)NC3CCCCC3)ncc21 [Example 487, N-Cyclohexyl-2-(2,6-dichlorophenylamino)-3-methyl-3H-imidazo[4,5-c]pyridine-6-carboxamide] | 100% |  |
| O=C(NC1CCC2(CC1)CC2)c1cc2[nH]c(Nc3c(Cl)cccc3Cl)nc2cn1 [Example 451, 2-(2,6-Dichlorophenylamino)-N-(spiro[2.5]octan-6-yl)-1H-imidazo[4,5-c]pyridine-6-carboxamide] | 99% |  |
| Cn1c(Nc2c(Cl)cccc2Cl)nc2cc(C(=O)Nc3ccc(Br)cc3)cnc21 [Example 463] |  | 97% |
| O=C(Nc1cc(C2CCC2)ccn1)c1cc2[nH]c(Nc3c(Cl)cncc3Cl)nc2cn1 [Example 738, 2-(3,5-Dichloro-pyridin-4-yl-amino)-N-(4-cyclobutyl-pyridin-2-yl)-1H-imidazo[4,5-c]pyridine-6-carboxamide] | 100% |  |
| Cn1c(Nc2c(Cl)cccc2Cl)nc2cc(C(=O)Nc3ccc(Br)cc3)ncc21 [Example 365, N-(4-Bromophenyl)-2-(2,6-dichlorophenylamino)-3-methyl-3H-imidazo[4,5-c]pyridine-6-carboxamide] | 100% |  |
| Cn1c(Nc2c(Cl)cncc2Cl)nc2cc(C(=O)NC3CCC(C)(C)CC3)ncc21 [Example 478, 2-(3,5-Dichloropyridin-4-ylamino)-N-(4,4-dimethylcyclohexyl)-3-methyl-3H-imidazo[4,5-c]pyridine-6-carboxamide] | 100% |  |
| O=C(NCc1ccccc1C(F)(F)F)c1cc2[nH]c(Nc3c(Cl)cccc3Cl)nc2cn1 [Example 477, 2-(2,6-Dichlorophenylamino)-N-(2-trifluoromethyl-benzyl)-1H-imidazo[4,5-c]pyridine-6-carboxamide] | 97% |  |
| Cn1c(Nc2c(Cl)cccc2Cl)nc2cc(C(=O)Nc3cc(C4CC4)ccn3)ncc21 [Example 462, N-(4-Cyclopropylpyridin-2-yl)-2-(2,6-dichlorophenylamino)-3-methyl-3H-imidazo[4,5-c]pyridine-6-carboxamide] | 94% |  |
| O=C(Nc1cc(OC2CCCC2)ccn1)c1cc2[nH]c(Nc3c(Cl)cccc3Cl)nc2cn1 [Example 440, N-(4-(Cyclopentyloxy)pyridin-2-yl)-2-(2,6-dichlorophenylamino)-1H-imidazo[4,5-c]pyridine-6-carboxamide] | 100% |  |
| O=C(Nc1cc(C(F)(F)F)ccn1)c1cc2[nH]c(Nc3c(Cl)cncc3Cl)nc2cn1 [Example 366, 2-(3,5-Dichloropyridin-4-ylamino)-N-(4-trifluoromethyl-pyridin-2-yl)-1H-imidazo[4,5-c]pyridine-6-carboxamide] | 100% |  |
| CC(C)c1ccc(NC(=O)c2cc3[nH]c(Nc4c(Cl)cncc4Cl)nc3cn2)nc1 [Example 737, 2-(3,5-Dichloro-pyridin-4-yl-amino)-N-(5-isopropyl-pyridin-2-yl)-1H-imidazo[4,5-c]pyridine-6-carboxamide] | 97% |  |
| Cc1cnc(NC(=O)c2cc3[nH]c(Nc4c(Cl)cncc4Cl)nc3cn2)cc1C1CC1 [Example 735, 2-(3,5-Dichloro-pyridin-4-yl-amino)-N-(4-cyclopropyl-5-methyl-pyridin-2-yl)-1H-imidazo[4,5-c]pyridine-6-carboxamide] | 99% |  |

Reference: US8598190B2, “3H-imidazo [4, 5-C] pyridine-6-carboxamides as anti-inflammatory agents” (Boehringer Ingelheim International GmbH, priority 2008, dated 2013)
